The text below walks through data of US20170183297A1, “OMEGA-3 ANALOGUES” (The University of Sydney, priority 2014, published 2017).

Molecules are shown by their SMILES.

A short description of data set [1]: Mouse body weight growth in control and treated groups. The class given is in vivo. The note with it: IP 2.5, 10 and 40 mg/kg, 37 days; for body weight growth of treated mice compared with control group: once a day six days per week. The protocol:
The weight range at the start of IP treatments was from 13.1 g to 18.1 g at Day 1 and increased to a range of 17.1 g to 21.3 g at Day 37.
(§1) After 4 days of cancer cell xenografting, IP administration of compounds CP01 or CP03 was started (2.5, 10 and 40 mg/kg). Compounds were diluted in corn oil containing 4% DMSO. Injection volume was 50 μL each mouse with a 20-gram body weight. IP injections were administered once a day for six days per week for a total of 37 days in duration. In a further study (see below), different doses of CP01, CP03 and CP05 were administered to nude mice carrying MDA-MB-231 xenografts (FIGS. 11, 12 and 13, respectively). The endpoint in this experiment was tumour volume and the experiments were conducted for 32 days.
(§2) Body weights were recorded six days per week and tumour sizes were measured with a pair of caliper, every three to four days.

In data set [2] the test system is human MDA-MB-231 breast cancer cell xenografts. As to the kind of experiment: Dose-response effects on breast tumour growth in nude mice with MDA-MB-231 xenografts (37 days IP). The class given is in vivo, mouse (nu/nu Balb/c, female). The note with it: for Average tumour volumes / Final tumour weight at day 37: mean ± SEM, n = 5; for tumour suppression (overall statement): all doses (2.5, 10, 40 mg/kg). The protocol:
Dose-response effects of compounds CP01 and CP03 on breast tumour growth in nude mice with human MDA-MB-231 breast cancer cell xenografts (subcutaneous injection in mammary fat pad)
5 weeks old when ordered, 6 weeks old when xenografted.
human MDA-MB-231 cells, 4×10^5 cells/100 μL (Matrigel:PBS 1:1)/mouse, subcutaneous injection into the third mammary fat pad.
7 groups, 5 mice in each group. After the cell injection, 7 cages were randomly divided into 7 groups following the average mouse body weight of mice each cage. • Control • CP01-2.5 mg/kg • CP01-10 mg/kg • CP01-40 mg/kg • CP03-2.5 mg/kg • CP03-10 mg/kg • CP03-40 mg/kg
Solid CP01 or CP03 powder was dissolved in DMSO at 40° C. to a final concentration of 400 mg/mL.
as §1, §2

The next data set concerns MDA-MB-231 cells. As to the kind of experiment: Matrigel migration assay. The class given is cell-based, Human. The note with it: 1, 5 and 10 μM, 24 h; P<0.01; FIG. 4. The protocol: Human MDA-MB-231, MDA-MB-468 and T-47D breast cancer cells were obtained from the American Type Culture Collection (ATCC; Manassas, Va., USA). Cells were plated on 96-well microplates at a density of 1×10^4 cells per well for MTT, ATP, Caspase and JC-1 assays. Cells were maintained in Dulbecco's Modified Eagle's Medium (DMEM; Invitrogen, Carlsbad, Calif., USA) supplemented with 10% (w/v) fetal bovine serum (Hyclone, Salt Lake City, Utah, USA), 100 U/mL penicillin, and 100 μg/mL streptomycin (Invitrogen). All of the cells were incubated at 37° C. in a humidified atmosphere of 95% air and 5% CO2. Confluent cells (80-90%) were washed in phosphate-buffered saline, harvested using Trypsin/EDTA, and counted using trypan blue exclusion in a Countess Automated Cell Counter (Invitrogen) before passaging or use in assays.
MDA-MB-231 cells were trypsinized and resuspended in serum-free DMEM media (3.5×10^6 cells/mL). The cell suspension was mixed 1:1 with Matrigel solution (Bio Scientific; Kirrawee, NSW, Australia). Aliquots (20 μL containing 3.5×10^4 cells) were placed into 6-well tissue-culture dishes to form well-defined droplets and incubated at 37° C. for 5 min to enable semi-solidification. Migration media was freshly made as DMEM containing 20% fetal bovine serum, epidermal growth factor 10 pg/mL, hydrocortisone 0.4 ng/mL, vascular endothelial growth factor (VEGF, 1 pg/mL), basic fibroblast growth factor (bFGF, 20 pg/mL), insulin-like growth factor-1 (40 pg/mL), ascorbic acid (2 ng/mL) and heparin (45 ng/mL). Compounds were added in migration media (3 mL/well) and plates were then incubated for 24 h. Cells that migrated out of droplets were scored using phase-contrast microscopy and digital image analysis (Olympus).

On to `O=C(O)CSCCCCCCCCCCCCCNC(=O)Nc1ccc(Cl)c(C(F)(F)F)c1` [CP03, {[13-({[4-Chloro-3-(trifluoromethyl)phenyl]carbamoyl}amino)tridecyl]sulfanyl}acetic acid], for which, in data set [1], the “evidence of toxicity (from body weight)” value is reported as “no evidence of toxicity”. Moreover, the “body weight growth of treated mice compared with control group” value in data set [1] is “no significant difference”. The Average tumour volumes in data set [2] (2.5 mg/kg IP, Day 8) amounted to 8.8 ± 1.4 mm^3; in data set [2] (2.5 mg/kg IP, Day 11), 10.7 ± 1.3 mm^3; in data set [2] (2.5 mg/kg IP, Day 15) it was 14.5 ± 0.9 mm^3; in data set [2] (2.5 mg/kg IP, Day 18), 18 ± 1.6 mm^3; in data set [2] (2.5 mg/kg IP, Day 21), 23 ± 2.8 mm^3; in data set [2] (2.5 mg/kg IP, Day 25) it was 29.5 ± 6 mm^3. Moreover, the Average tumour volumes was 45.4 ± 9.5 mm^3 in data set [2] (2.5 mg/kg IP, Day 29); 60.9 ± 13.7 mm^3 in data set [2] (2.5 mg/kg IP, Day 32); 80.4 ± 21^ mm^3 in data set [2] (2.5 mg/kg IP, Day 35); 106.7 ± 29.4 mm^3 in data set [2] (2.5 mg/kg IP, Day 37); 11.3 ± 2.9 mm^3 in data set [2] (10 mg/kg IP, Day 8); 10.9 ± 1.5 mm^3 in data set [2] (10 mg/kg IP, Day 11). The Average tumour volumes in data set [2] (10 mg/kg IP, Day 15) is 16.5 ± 2.8 mm^3; in data set [2] (10 mg/kg IP, Day 18), 19.3 ± 2.1 mm^3; in data set [2] (10 mg/kg IP, Day 21), 17.1 ± 2.9 mm^3; in data set [2] (10 mg/kg IP, Day 25), 23.1 ± 5 mm^3; in data set [2] (10 mg/kg IP, Day 29) it was 29 ± 7.5 mm^3; in data set [2] (10 mg/kg IP, Day 32), 39.3 ± 12.9 mm^3. The Average tumour volumes in data set [2] (10 mg/kg IP, Day 35) is 50.3 ± 21.2 mm^3; in data set [2] (10 mg/kg IP, Day 37), 67.3 ± 33.3 mm^3; in data set [2] (40 mg/kg IP, Day 8) it was 13.4 ± 2.3 mm^3; in data set [2] (40 mg/kg IP, Day 11) it was 12.5 ± 2^ mm^3; in data set [2] (40 mg/kg IP, Day 15) it was 17.2 ± 1.9 mm^3; in data set [2] (40 mg/kg IP, Day 18) it was 24.4 ± 5.5 mm^3. In addition, the Average tumour volumes in data set [2] (40 mg/kg IP, Day 21) is 24 ± 5.2 mm^3; in data set [2] (40 mg/kg IP, Day 25), 35.7 ± 10.7 mm^3; in data set [2] (40 mg/kg IP, Day 29), 46.3 ± 16.7 mm^3; in data set [2] (40 mg/kg IP, Day 32) it was 65.7 ± 23^ mm^3; in data set [2] (40 mg/kg IP, Day 35) it was 96.1 ± 33.8 mm^3; in data set [2] (40 mg/kg IP, Day 37), 118.9 ± 44.7 mm^3. In addition, the “Final tumour weight at day 37” value in data set [2] (2.5 mg/kg IP) was found to be 0.09 ± 0.03 g; in data set [2] (10 mg/kg IP), 0.06 ± 0.03 g; in data set [2] (40 mg/kg IP), 0.09 ± 0.04 g. The “tumour suppression (overall statement)” value in data set [2] is on record as “strong trends toward tumour suppression at all doses”. For the same molecule, the “reduction in tumour size (suppression of tumour growth)” value was 44% in data set [2] (dose 2.5 mg/kg), 65% in data set [2] (dose 10 mg/kg) and 38% in data set [2] (dose 40 mg/kg).
Regarding `O=C(O)CCCCCCCCCCCSCCCNC(=O)Nc1ccc(Cl)c(C(F)(F)F)c1` [CP01, 12-{[3-({[4-Chloro-3-(trifluoromethyl)phenyl]carbamoyl}amino)propyl]sulfanyl}dodecanoic acid], the “evidence of toxicity (from body weight)” value in data set [1] is listed as “no evidence of toxicity”. Further, the “body weight growth of treated mice compared with control group” value in data set [1] is “no significant difference”. Moreover, the Average tumour volumes in data set [2] (2.5 mg/kg IP, Day 8) is listed as 12.5 ± 1.9 mm^3; in data set [2] (2.5 mg/kg IP, Day 11), 10.5 ± 1^ mm^3; in data set [2] (2.5 mg/kg IP, Day 15), 10 ± 2.9 mm^3; in data set [2] (2.5 mg/kg IP, Day 18), 12.2 ± 3.2 mm^3; in data set [2] (2.5 mg/kg IP, Day 21), 16.9 ± 4.4 mm^3; in data set [2] (2.5 mg/kg IP, Day 25), 23.9 ± 6.1 mm^3. Besides, the Average tumour volumes in data set [2] (2.5 mg/kg IP, Day 29) is on record as 29.3 ± 7.4 mm^3; in data set [2] (2.5 mg/kg IP, Day 32), 52.1 ± 15 mm^3; in data set [2] (2.5 mg/kg IP, Day 35), 67.7 ± 17.1 mm^3; in data set [2] (2.5 mg/kg IP, Day 37) it was 78.7 ± 19.8 mm^3; in data set [2] (10 mg/kg IP, Day 8), 15 ± 2.4 mm^3; in data set [2] (10 mg/kg IP, Day 11) it was 15.6 ± 1.8 mm^3. Further, the Average tumour volumes in data set [2] (10 mg/kg IP, Day 15) was 16.5 ± 2.8 mm^3; in data set [2] (10 mg/kg IP, Day 18), 22 ± 4.5 mm^3; in data set [2] (10 mg/kg IP, Day 21), 26.4 ± 4.5 mm^3; in data set [2] (10 mg/kg IP, Day 25) it was 33.6 ± 6.2 mm^3; in data set [2] (10 mg/kg IP, Day 29), 45.2 ± 11.2 mm^3; in data set [2] (10 mg/kg IP, Day 32), 67.5 ± 19.3 mm^3. The Average tumour volumes in data set [2] (10 mg/kg IP, Day 35) was 85.7 ± 25.3 mm^3; in data set [2] (10 mg/kg IP, Day 37), 116.5 ± 37.6 mm^3; in data set [2] (40 mg/kg IP, Day 8) it was 11 ± 1.3 mm^3; in data set [2] (40 mg/kg IP, Day 11), 13.6 ± 2^ mm^3; in data set [2] (40 mg/kg IP, Day 15), 14.7 ± 0.7 mm^3; in data set [2] (40 mg/kg IP, Day 18) it was 23.6 ± 2.7 mm^3. The Average tumour volumes in data set [2] (40 mg/kg IP, Day 21) is listed as 26.3 ± 6^ mm^3; in data set [2] (40 mg/kg IP, Day 25) it was 35.9 ± 13.4 mm^3; in data set [2] (40 mg/kg IP, Day 29), 47.8 ± 17^ mm^3; in data set [2] (40 mg/kg IP, Day 32), 67.8 ± 26 mm^3; in data set [2] (40 mg/kg IP, Day 35), 116.6 ± 40.7 mm^3; in data set [2] (40 mg/kg IP, Day 37) it was 132.8 ± 50.9 mm^3. The “Final tumour weight at day 37” value in data set [2] (2.5 mg/kg IP) is reported as 0.05 ± 0.01 g; in data set [2] (10 mg/kg IP) it was 0.08 ± 0.03 g; in data set [2] (40 mg/kg IP), 0.11 ± 0.05 g. The “tumour suppression (overall statement)” value in data set [2] is on record as “strong trends toward tumour suppression at all doses”. For the same molecule, the “reduction in tumour size (suppression of tumour growth)” value is recorded as 59% in data set [2] (dose 2.5 mg/kg), 39% in data set [2] (dose 10 mg/kg) and 30% in data set [2] (dose 40 mg/kg).
As to `Cc1ccc(NC(=O)NCCCSCCCCCCCCCCCC(=O)O)cc1` [CP02, 12-[(3-{[(4-Methylphenyl)carbamoyl]amino}propyl)sulfanyl]dodecanoic acid], the “migration of MDA-MB-231 cells out of matrigel droplets” value with MDA-MB-231 cells is recorded as “all decreases significant”.
With `Cc1ccc(NC(=O)NCCCCCCCCCCCCCSCC(=O)O)cc1` [CP04], the “migration of MDA-MB-231 cells out of matrigel droplets” value in the data set with MDA-MB-231 cells was “all decreases significant”.
The same measure, in the same setting: in the case of `Cc1ccc(NC(=O)NCCCSCCCCCCCCCSCC(=O)O)cc1` [CP06, ({9-[(3-{[(4-Methylphenyl)carbamoyl]amino}propyl)sulfanyl]nonyl}sulfanyl)acetic acid] it was “all decreases significant”.
